The record followed here is patent publication US20040157738A1, “Novel oxygen containing fused cyclic derivatives and herbicidal, desiccant and defoliate compositions containing them” (ISHIHARA SANGYO KAISHA, LTD., priority 2003, published 2004).

As usually defined, the plant injury is the degree to which the test organism was suppressed or injured, in per cent. Low readings indicate weak suppression, high ones strong suppression.

Each structure is given as a SMILES string.

Assay type in all cases: in vivo
Test [1] has as its system barnyardgrass (Echinochloa crus-galli L.), ECHCG. Kind of test: Test Example 2: post-emergence (foliage treatment) herbicidal activity (growth controlling degree). As to conditions: 1.8-2.4 leaf stage; for pest or weed control at 63 g/ha: 63 g a.i./ha. The source says: (§1) Upland field soil was put into a 1/170,000 ha pot, and seeds of various plants were sown. Then, when the plants reached predetermined leaf stages [I. barnyardgrass (Echinochloa crus-galli L.), ECHCG: 1.8-2.4 leaf stage, 2. crabgrass (Digitaria sanguinalis L.), DIGSA: 1.5-2.2 leaf stage, 3. green foxtail (Setaria viridis L.), SETVI: 1.7-2.5 leaf stage, 4. redroot pigweed (Amaranthus retroflexus L.), AMARE: 0.1-0.3 leaf stage, 5. prickly sida (Sida spinosa L.), SIDSP: 0.3-0.5 leaf stage, 6. velvetleaf (Abutilon theophrasti), ABUTH: 0.3-0.4 leaf stage, 7. common cocklebur (Xanthium strumarium L.), XANST: 0.2-0.6 leaf stage, 8. rice (Oryza sativa L.), ORYSA: 1.6-2.2 leaf stage, 9. wheat (Triticum aestivum L.), TRZAX: 2.8 leaf stage, 10. corn (Zea mays L.), ZEAMX: 2.2-2.5 leaf stage, 11. soybean (Glycine max Merr.), GLXMA: 0.2-0.3 leaf stage], a wettable powder or emulsifiable concentrate having the compound of the present invention formulated in accordance with a usual formulation method, was weighed so that the active ingredient would be a predetermined amount, and diluted with water in an amount of 500 L/ha. To the diluted solution, 0.1%(v/v) of an agricultural spreader was added. The herbicide adjusted was applied by a small size sprayer for foliage treatment. On the […] day after the application of the herbicide, the growth of the respective plants was visually observed, and the herbicidal effects were evaluated by growth controlling degrees (%) ranging from 0 (equivalent to the untreated control) to 100 (complete kill), whereby the results shown in Table 12, were obtained. Compound Nos. in Table 12 correspond to Compound Nos. in Table 1 to 7 given hereinbefore.

For test [2], the system named is common cocklebur (Xanthium strumarium L.), XANST. Described as above. The conditions noted are these: 0.2-0.6 leaf stage; for pest or weed control at 63 g/ha: 63 g a.i./ha.
Text: as §1

In test [3] the test system is corn (Zea mays L.), ZEAMX. Described as above. The conditions noted are these: 2.2-2.5 leaf stage; for plant injury at 63 g/ha: 63 g a.i./ha.
Text: as §1

For test [4], the system named is crabgrass (Digitaria sanguinalis L.), DIGSA. The description is as above. The conditions noted are these: 1.5-2.2 leaf stage; for pest or weed control at 63 g/ha: 63 g a.i./ha.
Text: as §1

Test [5] deals with green foxtail (Setaria viridis L.), SETVI. The description is as above. As to conditions: 1.7-2.5 leaf stage; for pest or weed control at 63 g/ha: 63 g a.i./ha.
Text: as §1

For test [6], the system named is prickly sida (Sida spinosa L.), SIDSP. Described as above. As to conditions: 0.3-0.5 leaf stage; for pest or weed control at 63 g/ha: 63 g a.i./ha.
Text: as §1

For test [7], the system named is redroot pigweed (Amaranthus retroflexus L.), AMARE. The description is as above. The conditions noted are these: 0.1-0.3 leaf stage.
Text: as §1

Test [8] concerns rice (Oryza sativa L.), ORYSA. The test is described as above. The conditions noted are these: 1.6-2.2 leaf stage; for plant injury at 63 g/ha: 63 g a.i./ha.
Text: as §1

For test [9], the system named is soybean (Glycine max Merr.), GLXMA. The description is as above. The conditions noted are these: 0.2-0.3 leaf stage; for pest or weed control at 63 g/ha: 63 g a.i./ha.
Text: as §1

The subject of test [10] is velvetleaf (Abutilon theophrasti), ABUTH. Described as above. As to conditions: 0.3-0.4 leaf stage; for pest or weed control at 63 g/ha: 63 g a.i./ha.
Text: as §1

The test system of test [11] is barnyardgrass (Echinochloa oryzicola: ECHOR). As to the kind of experiment: Test Example 3: water application herbicidal activity, paddy (growth controlling degree). As to conditions: rate 63 g a.i./ha, water application under submerged condition, paddy pot, barnyardgrass at 0.5 leaf stage; for pest or weed control at 63 g/ha: Echinochloa oryzicola, 336 h. The source says:
(§2) Paddy field soil was put into a {fraction (1/1,000,000)} ha pot, and seeds of barnyardgrass (Echinochloa oryzicola: ECHOR) and japanese bulrush (Scirpus juncoides: SCPJO) were sown and slightly covered with soil. Then the pot was left to stand still in a greenhouse in a state where the depth of flooding water was from 0.5 to 1 cm, and one day later, tubers of japanese ribbon wapato (Sagittaria pygmaea: SAGPY) were planted. Thereafter, the depth of flooding water was maintained at a level of from 3 to 4 cm, and when barnyardgrass and japanese bulrush reached a 0.5 leaf stage, an aqueous diluted solution of a wettable powder or emulsifiable concentrate having the compound of the present invention formulated in accordance with a usual formulation method, was uniformly applied under submerged condition by a pipette so that the dose of the active ingredient would be at a predetermined level. On the other hand, paddy filed soil was put into a {fraction (1/1,000,000)} ha pot and puddled and leveled, and the depth of flooding water was from 3 to 4 cm. One day later, rice (Oryza sativa L.: ORYSA) of 2 leaf stage was transplanted in a depth of 3 cm. On the 4th day after the transplantation, the compound of the present invention was applied in the same manner as described above. On the 14th day after the application of the herbicide, the growth of barnyardgrass, japanese burlush and japanese ribbon wapato was visually observed and on the 21st day after the application of the herbicide, the growth of rice was visually observed, and the herbicidal effects were evaluated by growth controlling degrees (%) ranging from 0 (equivalent to the untreated control) to 100 (complete kill), whereby the results shown in Table 13, were obtained. Compound Nos. in Table 13 correspond to Compound Nos. in Table 1 to 7 given hereinbefore.

The subject of test [12] is japanese bulrush (Scirpus juncoides: SCPJO). Described as above. The conditions noted are these: rate 63 g a.i./ha, water application under submerged condition, paddy pot, japanese bulrush at 0.5 leaf stage; for pest or weed control at 63 g/ha: Schoenoplectiella juncoides, 336 h.
Text: as §2

Test [13] deals with japanese ribbon wapato (Sagittaria pygmaea: SAGPY). Described as above. As to conditions: rate 63 g a.i./ha; water application under submerged condition, paddy pot; tubers of japanese ribbon wapato planted.
Text: as §2

The test system of test [14] is rice (Oryza sativa L.: ORYSA). Described as above. As to conditions: rate 63 g a.i./ha, paddy pot, rice of 2 leaf stage transplanted, treated on the 4th day after transplantation; for pest or weed control at 63 g/ha: Oryza sativa, 504 h.
Text: as §2

[15] abbreviates: Digitaria sanguinalis, 504 h, read-out: growth controlling degree, DIGSP.

For `Cn1nc(-c2c(F)cc(Cl)c3c2CCCO3)c(Cl)c1C(F)(F)F` [Compound 1-2, 4-chloro-3-(8-chloro-6-fluoro-3,4-dihydro-2H-1-benzopyran-5-yl)-1-methyl-5-(trifluoromethyl)-1H-pyrazole], the pest or weed control at 63 g/ha in test [1] (Echinochloa crus-galli, 504 h) came out at 98%; in [2] (Xanthium strumarium, 504 h), 100%; in test [4] (setting [15]), 60%; in test [5] (Setaria viridis, 504 h) it was 70%; in test [6] (Sida spinosa, 504 h), 98%; in [9] (Glycine max, 504 h), 60%. The pest or weed control at 63 g/ha turned out to be 100% in [10] (Abutilon theophrasti, 504 h); 40% in [11]; 30% in [12]; 20% in test [14]. Also, the plant injury at 63 g/ha in test [3] (Zea mays, 504 h) worked out at 60%; in test [8] (Oryza sativa, 504 h), 50%. Also, in test [7] (63 g a.i./ha), the “growth controlling degree, AMARE” value was 100%. Also, the “Water Application Herbicidal Activity SAGPY (growth controlling degree)” value in test [13] turned out to be 0%.
Take `CC1CCc2c(c(Cl)cc(F)c2-c2nn(C)c(OC(F)F)c2Cl)O1` (centres unmarked) [Compound 1-39]: the pest or weed control at 31 g/ha in test [1] (Echinochloa crus-galli, 504 h, 31 g a.i./ha) is 100%; in test [2] (Xanthium strumarium, 504 h, 31 g a.i./ha) it was 100%; in test [4] (Digitaria sanguinalis, 504 h, 31 g a.i./ha, read-out: growth controlling degree, DIGSP), 100%; in test [5] (Setaria viridis, 504 h, 31 g a.i./ha), 100%; in [6] (Sida spinosa, 504 h, 31 g a.i./ha), 100%; in test [9] (Glycine max, 504 h, 31 g a.i./ha), 100%. The same molecule gave a pest or weed control at 31 g/ha in test [10] (Abutilon theophrasti, 504 h, 31 g a.i./ha) of 100%. In addition, the plant injury at 31 g/ha amounted to 98% in [3] (Zea mays, 504 h, 31 g a.i./ha) and 98% in test [8] (Oryza sativa, 504 h, 31 g a.i./ha). Also, in test [7] (31 g a.i./ha), the “growth controlling degree, AMARE” value came out at 100%. Also, the pest or weed control at 63 g/ha came out at 100% in test [11], 100% in test [12] and 60% in test [14]. Moreover, in [13], the “Water Application Herbicidal Activity SAGPY (growth controlling degree)” value came out at 100%.
As to `Cn1nc(-c2c(F)cc(Cl)c3c2CCCO3)c(Cl)c1OC(F)F` [Compound 1-33, 4-chloro-3-(8-chloro-6-fluoro-3,4-dihydro-2H-1-benzopyran-5-yl)-5-(difluoromethoxy)-1-methyl-1H-pyrazole], the pest or weed control at 63 g/ha turned out to be 100% in [1] (Echinochloa crus-galli, 504 h); 100% in test [2] (Xanthium strumarium, 504 h); 100% in test [4] (setting [15]); 100% in test [5] (Setaria viridis, 504 h); 100% in test [6] (Sida spinosa, 504 h); 100% in [9] (Glycine max, 504 h). Besides, the pest or weed control at 63 g/ha worked out at 100% in test [10] (Abutilon theophrasti, 504 h); 100% in [11]; 100% in test [12]; 80% in test [14]. Moreover, the plant injury at 63 g/ha in test [3] (Zea mays, 504 h) was 100%; in test [8] (Oryza sativa, 504 h), 98%. For the same molecule, in test [7] (63 g a.i./ha), the “growth controlling degree, AMARE” value is on record as 100%. Besides, the “Water Application Herbicidal Activity SAGPY (growth controlling degree)” value in test [13] is 100%.
In the case of `CC1CCc2c(c(Cl)cc(F)c2-c2nn3c(c2Cl)CCCC3)O1` (centres unmarked) [Compound 1-85], in [1] (31 g a.i./ha), the “growth controlling degree, ECHCG” value came out at 70%. The “growth controlling degree, XANST” value in test [2] (31 g a.i./ha) is recorded as 100%. In [3] (31 g a.i./ha), the “growth controlling degree, ZEAMX” value is reported as 50%. For the same molecule, the “growth controlling degree, DIGSP” value in test [4] (31 g a.i./ha) is recorded as 40%. Besides, the “growth controlling degree, SETVI” value in test [5] (31 g a.i./ha) stood at 80%. In addition, in [6] (31 g a.i./ha), the “growth controlling degree, SIDSP” value was 95%. For the same molecule, the “growth controlling degree, AMARE” value in test [7] (31 g a.i./ha) stood at 70%. For the same molecule, the “growth controlling degree, ORYSA” value in test [8] (31 g a.i./ha) is listed as 40%. Further, the “growth controlling degree, GLXMA” value in test [9] (31 g a.i./ha) was determined as 50%. The “growth controlling degree, ABUTH” value in [10] (31 g a.i./ha) turned out to be 100%. For the same molecule, the “Water Application Herbicidal Activity ECHOR (growth controlling degree)” value in [11] worked out at 100%. In test [12], the “Water Application Herbicidal Activity SCPJO (growth controlling degree)” value was 98%. Further, the “Water Application Herbicidal Activity SAGPY (growth controlling degree)” value in [13] is listed as 100%. For the same molecule, in [14], the “Water Application Herbicidal Activity ORYSA (growth controlling degree)” value was determined as 10%.
In the case of `Fc1cc(Cl)c2c(c1-c1ncc(C(F)(F)F)cc1Cl)CCCO2` [Compound 7-2, 3-chloro-2-(8-chloro-6-fluoro-3,4-dihydro-2H-1-benzopyran-5-yl)-5-(trifluoromethyl)-pyridine], the pest or weed control at 63 g/ha in test [1] (Echinochloa crus-galli, 504 h) amounted to 80%; in test [2] (Xanthium strumarium, 504 h), 70%; in [4] (setting [15]), 95%; in test [5] (Setaria viridis, 504 h), 100%; in [6] (Sida spinosa, 504 h), 100%; in [9] (Glycine max, 504 h), 60%. The pest or weed control at 63 g/ha is 100% in test [10] (Abutilon theophrasti, 504 h); 100% in test [11]; 98% in test [12]; 0% in [14]. Further, the plant injury at 63 g/ha in test [3] (Zea mays, 504 h) is 90%; in test [8] (Oryza sativa, 504 h), 60%.
